# Numbered stars: 1 amine (or outer) side, 2 acyl side, 3 side chain; on linkers, the order of the positions; unused ones are H or OH. Bridge positions count the residues as written; N and C are the ends. Square brackets hold non-standard residues; d marks the D form. Peptide text beside a SMILES is read from it. X1 = CC(C)CCCCCCCCC[C@H](CC(=O)[*:1])O[*:2]
# Test system: Trichophyton mentagrophytes
# Type: cell-based
smiles,measurement,value
CC(C)CCCCCCCCC[C@@H]1CC(=O)N[C@@H](CCC(=O)O)C(=O)N[C@@H](CC(C)C)C(=O)N[C@H](CC(C)C)C(=O)N[C@@H](C(C)C)C(=O)N[C@@H](CC(=O)O)C(=O)N[C@H](CC(C)C)C(=O)N[C@@H](CC(C)C)C(=O)O1 [surfactin] (EL[dL]VD[dL]L; linker N-C via X1),antifungal activity (growth inhibition of test microorganism),"weaker than iturin A, but slight inhibitory activities"

# From US20130165635A1 (priority 2010, published 2013)
